Experiment: Infusion vehicle (5% dextrose) compatibility
Assay type: physicochemical
Details: ambient
Procedure: A brincidofovir formulation comprising 10 mg/mL brincidofovir, 200 mM sodium phosphate, and 69 mM dextrose (pH=8.0) was diluted with the testing infusion vehicle (5% dextrose solution) to yield c(BCV)=0.5 and 1.0 mg/mL solutions. The diluted solutions were stored at ambient conditions, and samples were collected at initially at the beginning of the experiment, and after 2 h, 8 h, and 24 h and evaluated for appearance, pH, and recovery of c(BCV) (via HPLC). […] Detailed results of the study are summarized below (Table 18).
The Formulation 3a was diluted with the infusion vehicle (5% dextrose) solution to yield c(BCV)=0.5 mg/mL and 1.0 mg/mL solutions. The appearance, pH, and brincidofovir recovery (determined via HPLC) were evaluated at the time of preparing the test solution (to), and after 2 h (t2h), 8 h (t8h), and 24 h (t24h)

[1] = c(BCV) 0.5 mg/mL in 5% dextrose, 0 h
[2] = c(BCV) 0.5 mg/mL in 5% dextrose, 2 h
[3] = c(BCV) 0.5 mg/mL in 5% dextrose, 8 h
[4] = c(BCV) 0.5 mg/mL in 5% dextrose, 24 h
[5] = c(BCV) 1.0 mg/mL in 5% dextrose, 0 h
[6] = c(BCV) 1.0 mg/mL in 5% dextrose, 2 h
[7] = c(BCV) 1.0 mg/mL in 5% dextrose, 8 h
[8] = c(BCV) 1.0 mg/mL in 5% dextrose, 24 h

CCCCCCCCCCCCCCCCOCCCOP(=O)(O)CO[C@H](CO)Cn1ccc(N)nc1=O [Brincidofovir]
Appearance [1]: Clear, colorless
Measured pH [1]: 8.2
Observed c(BCV) [1]: 0.51 mg/mL
Appearance [2]: Clear, colorless
Measured pH [2]: 8.3
Observed c(BCV) [2]: 0.51 mg/mL
Appearance [3]: Clear, colorless
Measured pH [3]: 8.2
Observed c(BCV) [3]: 0.51 mg/mL
Appearance [4]: Clear, colorless
Measured pH [4]: 8.2
Observed c(BCV) [4]: 0.49 mg/mL
Appearance [5]: Clear, colorless
Measured pH [5]: 8.2
Observed c(BCV) [5]: 1.0 mg/mL
Appearance [6]: Clear, colorless
Measured pH [6]: 8.2
Observed c(BCV) [6]: 1.0 mg/mL
Appearance [7]: Clear, colorless
Measured pH [7]: 8.2
Observed c(BCV) [7]: 1.0 mg/mL
Appearance [8]: Clear, colorless
Measured pH [8]: 8.2
Observed c(BCV) [8]: 1.0 mg/mL

— patent publication US20170368082A1, “FORMULATIONS OF BRINCIDOFOVIR” (priority 2016, published 2017)
